Legend:
[1] = target: T1, 5-hydroxytryptamine receptor 1A (Rattus norvegicus, UniProt P19327); experiment: Inhibitory concentration against 5-hydroxytryptamine 1A receptor (Inactive at >1000 nM concentration)
T1 sequence (P19327 whole entry): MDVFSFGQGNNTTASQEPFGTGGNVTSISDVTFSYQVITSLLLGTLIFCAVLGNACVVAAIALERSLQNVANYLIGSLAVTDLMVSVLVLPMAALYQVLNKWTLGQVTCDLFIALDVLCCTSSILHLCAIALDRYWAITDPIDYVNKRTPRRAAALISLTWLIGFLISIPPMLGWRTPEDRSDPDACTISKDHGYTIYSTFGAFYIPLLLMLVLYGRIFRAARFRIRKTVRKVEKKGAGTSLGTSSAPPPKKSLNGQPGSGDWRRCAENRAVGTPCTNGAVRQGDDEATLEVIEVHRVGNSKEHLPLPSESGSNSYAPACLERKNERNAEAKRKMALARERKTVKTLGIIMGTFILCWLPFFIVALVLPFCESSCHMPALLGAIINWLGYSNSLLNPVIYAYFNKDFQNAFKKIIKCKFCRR

[2] = target: 5-hydroxytryptamine receptor 2A (Rattus norvegicus, UniProt P14842); experiment: Inhibitory concentration against 5-hydroxytryptamine 2A receptor (Inactive at >1000 nM concentration)
5-hydroxytryptamine receptor 2A, sequence (P14842 whole entry): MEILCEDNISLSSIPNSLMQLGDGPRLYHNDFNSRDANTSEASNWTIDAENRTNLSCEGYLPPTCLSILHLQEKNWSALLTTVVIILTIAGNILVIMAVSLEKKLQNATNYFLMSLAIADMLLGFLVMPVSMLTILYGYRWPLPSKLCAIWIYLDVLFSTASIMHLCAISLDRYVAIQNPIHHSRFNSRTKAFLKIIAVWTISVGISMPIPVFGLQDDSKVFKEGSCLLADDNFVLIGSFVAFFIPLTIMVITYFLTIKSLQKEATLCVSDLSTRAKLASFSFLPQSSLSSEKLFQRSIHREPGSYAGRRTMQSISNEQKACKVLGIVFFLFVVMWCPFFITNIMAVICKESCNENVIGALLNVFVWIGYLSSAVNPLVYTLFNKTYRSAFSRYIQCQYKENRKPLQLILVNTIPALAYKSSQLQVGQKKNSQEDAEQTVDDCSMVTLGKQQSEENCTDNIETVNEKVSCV

[3] = target: T2, Adrenergic receptor alpha-1 (Rattus norvegicus, UniProt P15823+P23944+P43140); experiment: Inhibition of Alpha-1 adrenergic receptor in rat cortex membrane; type: cell membranes
T2 sequence (P15823 whole entry): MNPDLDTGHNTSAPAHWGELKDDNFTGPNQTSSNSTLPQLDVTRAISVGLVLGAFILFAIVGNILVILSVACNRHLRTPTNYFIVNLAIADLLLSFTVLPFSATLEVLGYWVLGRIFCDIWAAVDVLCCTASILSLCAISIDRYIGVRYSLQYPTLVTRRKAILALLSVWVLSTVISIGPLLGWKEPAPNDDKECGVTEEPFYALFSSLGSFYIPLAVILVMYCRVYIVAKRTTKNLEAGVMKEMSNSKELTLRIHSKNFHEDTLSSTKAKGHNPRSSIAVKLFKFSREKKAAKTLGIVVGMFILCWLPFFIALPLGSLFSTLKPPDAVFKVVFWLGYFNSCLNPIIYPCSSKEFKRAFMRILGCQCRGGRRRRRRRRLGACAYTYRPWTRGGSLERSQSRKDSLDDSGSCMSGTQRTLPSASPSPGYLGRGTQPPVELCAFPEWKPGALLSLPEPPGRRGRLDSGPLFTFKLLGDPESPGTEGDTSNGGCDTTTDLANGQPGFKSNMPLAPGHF
T2 sequence (P23944 whole entry): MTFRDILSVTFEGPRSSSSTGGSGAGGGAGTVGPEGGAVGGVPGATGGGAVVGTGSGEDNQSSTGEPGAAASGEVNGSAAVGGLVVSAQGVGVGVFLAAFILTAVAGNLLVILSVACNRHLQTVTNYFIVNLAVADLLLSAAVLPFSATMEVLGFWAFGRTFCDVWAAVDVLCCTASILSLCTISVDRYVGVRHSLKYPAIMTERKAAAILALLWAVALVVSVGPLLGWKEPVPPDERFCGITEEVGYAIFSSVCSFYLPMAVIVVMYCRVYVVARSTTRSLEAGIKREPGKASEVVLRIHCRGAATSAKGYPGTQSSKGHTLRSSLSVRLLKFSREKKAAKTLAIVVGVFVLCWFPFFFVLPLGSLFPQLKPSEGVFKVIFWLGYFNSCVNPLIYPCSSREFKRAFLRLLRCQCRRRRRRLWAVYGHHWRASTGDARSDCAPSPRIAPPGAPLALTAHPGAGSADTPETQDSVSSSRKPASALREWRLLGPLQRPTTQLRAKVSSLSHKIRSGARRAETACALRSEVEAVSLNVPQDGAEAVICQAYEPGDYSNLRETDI
T2 sequence (P43140 whole entry): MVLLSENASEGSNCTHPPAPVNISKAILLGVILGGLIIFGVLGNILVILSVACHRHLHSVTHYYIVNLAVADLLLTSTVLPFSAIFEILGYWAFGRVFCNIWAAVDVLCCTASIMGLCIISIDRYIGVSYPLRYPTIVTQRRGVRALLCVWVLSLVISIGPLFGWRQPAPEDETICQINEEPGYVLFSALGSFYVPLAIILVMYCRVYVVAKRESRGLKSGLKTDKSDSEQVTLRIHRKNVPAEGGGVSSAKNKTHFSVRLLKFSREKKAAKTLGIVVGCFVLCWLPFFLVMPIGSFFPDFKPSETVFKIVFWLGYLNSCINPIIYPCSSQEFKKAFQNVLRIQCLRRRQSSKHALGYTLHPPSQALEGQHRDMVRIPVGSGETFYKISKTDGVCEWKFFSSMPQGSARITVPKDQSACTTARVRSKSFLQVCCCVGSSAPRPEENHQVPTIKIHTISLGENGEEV

[4] = target: T3, Adrenergic receptor alpha-2 (Rattus norvegicus, UniProt P22086+P19328+P22909); experiment: Inhibitory concentration against Alpha-2 adrenergic receptor; type: protein assay
T3 sequence (P22086 whole entry): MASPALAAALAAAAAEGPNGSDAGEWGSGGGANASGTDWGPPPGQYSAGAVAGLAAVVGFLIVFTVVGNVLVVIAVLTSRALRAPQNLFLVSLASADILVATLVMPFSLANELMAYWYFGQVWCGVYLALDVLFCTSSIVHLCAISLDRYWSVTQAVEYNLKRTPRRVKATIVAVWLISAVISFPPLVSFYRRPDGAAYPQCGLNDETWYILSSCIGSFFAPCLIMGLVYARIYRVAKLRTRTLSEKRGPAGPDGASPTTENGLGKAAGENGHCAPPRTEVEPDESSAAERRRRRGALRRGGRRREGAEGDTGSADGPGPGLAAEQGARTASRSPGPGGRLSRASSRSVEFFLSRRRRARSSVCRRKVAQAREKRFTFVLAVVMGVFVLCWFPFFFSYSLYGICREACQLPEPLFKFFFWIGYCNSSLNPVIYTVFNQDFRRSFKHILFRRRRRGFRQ
T3 sequence (P19328 whole entry): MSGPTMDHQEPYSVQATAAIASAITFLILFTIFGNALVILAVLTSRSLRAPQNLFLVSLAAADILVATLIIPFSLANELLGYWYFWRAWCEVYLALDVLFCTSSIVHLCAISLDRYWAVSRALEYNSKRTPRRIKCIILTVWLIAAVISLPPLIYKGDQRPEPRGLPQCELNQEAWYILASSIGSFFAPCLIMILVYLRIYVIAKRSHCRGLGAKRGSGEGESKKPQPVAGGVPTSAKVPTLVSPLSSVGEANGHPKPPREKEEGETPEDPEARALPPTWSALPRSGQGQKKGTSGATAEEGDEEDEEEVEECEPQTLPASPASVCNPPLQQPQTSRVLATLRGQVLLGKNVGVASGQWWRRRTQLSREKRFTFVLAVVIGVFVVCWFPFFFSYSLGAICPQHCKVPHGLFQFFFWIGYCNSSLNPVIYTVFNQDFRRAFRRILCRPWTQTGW
T3 sequence (P22909 whole entry): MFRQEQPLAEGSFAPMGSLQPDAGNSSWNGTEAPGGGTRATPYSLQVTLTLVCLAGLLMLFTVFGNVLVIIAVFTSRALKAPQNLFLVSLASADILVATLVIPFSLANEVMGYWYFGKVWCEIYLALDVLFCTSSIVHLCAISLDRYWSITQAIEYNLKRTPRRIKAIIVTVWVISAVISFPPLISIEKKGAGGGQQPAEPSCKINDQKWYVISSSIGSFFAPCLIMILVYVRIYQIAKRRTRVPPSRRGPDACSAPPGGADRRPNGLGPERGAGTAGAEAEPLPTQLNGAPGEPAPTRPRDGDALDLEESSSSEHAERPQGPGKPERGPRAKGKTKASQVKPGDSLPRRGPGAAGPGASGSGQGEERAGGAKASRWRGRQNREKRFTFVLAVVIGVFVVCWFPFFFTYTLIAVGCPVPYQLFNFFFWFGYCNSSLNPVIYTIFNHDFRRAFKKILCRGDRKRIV

[5] = target: T4, Alpha-1A adrenergic receptor (Rattus norvegicus, UniProt P43140); experiment: The binding affinity towards Alpha-1A adrenergic receptor in the COS cell line.; type: cell-based
T4 sequence (P43140 whole entry): T2 sequence (P43140 whole entry)

D(2) dopamine receptor = D(2) dopamine receptor (Rattus norvegicus, UniProt P61169); experiment: Inhibitory concentration against Dopamine receptor D2 (Inactive at >1000 nM concentration)
D(2) dopamine receptor, sequence (P61169 whole entry): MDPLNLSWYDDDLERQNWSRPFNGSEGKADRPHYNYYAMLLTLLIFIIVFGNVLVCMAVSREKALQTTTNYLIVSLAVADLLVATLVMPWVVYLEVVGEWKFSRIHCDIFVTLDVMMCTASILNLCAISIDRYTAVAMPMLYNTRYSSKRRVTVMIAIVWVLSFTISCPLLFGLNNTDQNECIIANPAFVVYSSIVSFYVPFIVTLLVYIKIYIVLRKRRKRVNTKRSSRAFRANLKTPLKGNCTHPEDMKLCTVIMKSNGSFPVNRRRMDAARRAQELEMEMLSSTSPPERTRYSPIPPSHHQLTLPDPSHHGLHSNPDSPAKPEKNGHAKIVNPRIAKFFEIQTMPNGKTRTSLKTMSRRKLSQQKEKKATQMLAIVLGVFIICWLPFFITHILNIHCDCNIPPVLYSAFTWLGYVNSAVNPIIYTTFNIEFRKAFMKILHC

[6] = target: Alpha-1D adrenergic receptor (Rattus norvegicus); experiment: The binding affinity towards Alpha-1D adrenergic receptor in the COS cell line.
[7] = target: Alpha-1B adrenergic receptor (non-human animal clone); experiment: The binding affinity towards Alpha-1B adrenergic receptor in the COS cell line.
Canis familiaris [8] = experiment: In vivo hypotensive effect(DBP) in dog after intravenous administration.; type: functional, Canis lupus familiaris
Canis familiaris [9] = experiment: In vivo effect on urethral contractility (UP) of dog after intravenous administration.; type: functional, Canis lupus familiaris, Urethra
[10] = target: T1, 5-hydroxytryptamine receptor 1A; experiment: Inhibition concentration against 5-hydroxytryptamine 1A receptor
Canis familiaris [11] = experiment: Ratio of the in vivo effects(DBP/UP) in the dog model after intravenous administration.; type: functional, Canis lupus familiaris

Structure (SMILES) | IC50 [1] | IC50 [2] | IC50 [3] | IC50 [4] | Ki [5] | IC50 (D(2) dopamine receptor) | Ki [6] | Ki [7] | IC50 [10] | ED25 (Canis familiaris [8]) | ED50 (Canis familiaris [9]) | DBP/UP ratio (Canis familiaris [11])
COc1cc2nc(N3CCN(C(=O)COc4ccccc4OC)CC3)nc(N)c2cc1OC | – | > 1000 nM | – | > 1000 nM | – | > 1000 nM | – | – | 170 nM | – | – | –
COc1cc2nc(N3CCN(C(=O)CCC(=O)c4ccccc4)CC3)nc(N)c2cc1OC | > 1000 nM | > 1000 nM | 15 nM | > 1000 nM | 5.68 nM | > 1000 nM | – | – | – | 0.132 mg/kg | 0.035 mg/kg | –
COc1cc2nc(N3CCN(C(=O)CC(=O)c4ccccc4)CC3)nc(N)c2cc1OC | > 1000 nM | > 1000 nM | 7.2 nM | > 1000 nM | 11 nM | > 1000 nM | 8.17 nM | 5.43 nM | – | 0.0081 mg/kg | 0.0106 mg/kg | 0.7

More lines, main results first:

IC50 [1] | IC50 [2] | IC50 [3] | IC50 [4] | Ki [5] | IC50 (D(2) dopamine receptor) | Ki [6] | Ki [7] | IC50 [10] | Structure (SMILES) | ED25 (Canis familiaris [8]) | ED50 (Canis familiaris [9]) | DBP/UP ratio (Canis familiaris [11])
> 1000 nM | > 1000 nM | 123 nM | > 1000 nM | 156 nM | > 1000 nM | 113 nM | 14.7 nM | – | COc1cc2nc(N3CCN(C(=O)C(C)Oc4c(OC)cccc4C(C)C)CC3)nc(N)c2cc1OC (centres undefined) | – | – | –
> 1000 nM | > 1000 nM | 1.4 nM | > 1000 nM | 1.48 nM | > 1000 nM | – | – | – | COc1cc2nc(N3CCN(C(=O)CC(c4ccccc4)c4ccccc4)CC3)nc(N)c2cc1OC | 0.023 mg/kg | 0.031 mg/kg | –
